Source: patent US7208466B1 (priority 1999, dated 2007)

Tested on: mice
Settings: mouse, in vivo

Compound: CN1CC[C@]23c4c5ccc(O)c4O[C@H]2[C@@H](O)C=C[C@H]3[C@H]1C5 [morphine]
- period over which effect declines / returns to control levels: 5 h
- time of maximal effect: 1 h
